# Measurements from PMC10891214, “Effects of food and ethnicity on the pharmacokinetics of venadaparib, a next-generation PARP inhibitor, in healthy Korean, Caucasian, and Chinese male subjects” (Investigational New Drugs, 2023).
# What was measured:
# [1] = Pharmacokinetics after a single oral administration of venadaparib 80 mg (fasted or fed state) in healthy male subjects; type: in vivo, human; details: for AUCinf / AUClast / CL/F / Cmax / Vd/F / t1/2 / Tmax: 80 mg single oral; for AUCinf / AUClast / CL/F / Cmax / Vd/F / t1/2: mean ± SD; for Tmax: median (minimum–maximum); for AUCinf geometric mean ratio (90% confidence interval) / AUClast geometric mean ratio (90% confidence interval) / Cmax geometric mean ratio (90% confidence interval): fed to fasted state
# Protocol: A randomized, open-label, single-dose, two-sequence, and two-period crossover study was conducted with 12 Korean and 12 Caucasian subjects. Subjects in each ethnic group were randomly assigned to one of the two sequences at a ratio of 1:1 (Fig. 1). The subjects were orally administered 80 mg of venadaparib in each treatment period (fasted or fed state), following an overnight fast of at least 10 h. There was a seven-day washout between the two treatment periods. In the fed state, the subjects consumed an entire high-fat meal (total of 800–1000 kcal, fat of 500–600 kcal) within 20 min and were subsequently administered the study drug with 240 mL of water 30 min after the start of the meal. An open-label, single-dose study was conducted on 12 Chinese subjects who received 80 mg of venadaparib only in the fasted state (Fig. 1).
# Based on the PK results of venadaparib in a previous study (NCT03317743), serial blood samples for the PK analysis of venadaparib were collected at 0 (pre-dose), 0.25, 0.5, 1, 2, 3, 4, 6, 8, 10, 12, 24, 36, 48, and 72 h post-dose for all treatment and ethnic groups. The blood samples were collected in a K2-ethylenediaminetetraacetic acid (EDTA) vacutainer, centrifuged at 4 ℃ and 3000 rpm for 10 min, and stored at − 70 ℃ until analysis.
# Plasma concentrations of venadaparib were determined using validated high-performance liquid chromatography (Exion LC, AB Sciex) coupled with mass spectrometry (Triple Quad 5500+, AB Sciex). Venadaparib as an analyte and olaparib as the internal standard were separated using a Gemini 3 μm NX-C18 110 Å (100 × 3 mm) column (Phenomenex, CA, USA) at 40 ℃. The mobile phase comprised 0.1% formic acid in distilled water and 100% acetonitrile at a flow rate of 0.3 mL/minute. Venadaparib and olaparib were detected with a turbo-ion spray in positive ionization mode at an m/z transition of 407.2 → 70.0 and 435.2 → 281.1, respectively.
# The calibration curve for venadaparib ranged from 5 to 5000 μg/L, with precision and accuracy ranging from 1.89 to 4.00% and 92.98 to 102.80%, respectively. For the quality control sample data of venadaparib, the precision and accuracy ranged from 4.38 to 5.18% and 96.75 to 102.59%, respectively.
# The PK parameters of venadaparib were calculated by a non-compartmental method using Phoenix WinNonlin software version 8.3.4 (Certara, NJ, USA). The area under the plasma concentration-time curve (AUC) was determined using the linear-up log-down trapezoidal method. The primary PK parameters were Cmax and AUC from time zero to the last measurable time point (AUClast) for comparison between the exposures to the effects of food and ethnicity. The following secondary PK parameters were calculated: AUC from time zero to infinity (AUCinf), time to reach Cmax (Tmax), t1/2, apparent total clearance (CL/F), and apparent volume of distribution (Vd/F).
# Statistical analyses were conducted using SAS software version 9.4 (SAS Institute Inc., NC, USA). The primary PK parameters in the fed and fasted states were compared by estimating the geometric mean ratios and 90% confidence intervals using a linear mixed-effects model. The model included the sequence, period, and treatment as fixed effects, and the subject nested within the sequence as a random effect. Analysis of variance (ANOVA) tests were conducted to assess possible differences in the values of the primary PK parameters among the ethnic groups in the fasted state.
# [2] = in vivo
# Protocol: Safety was assessed in all subjects who received the study drug at least once throughout the study based on adverse event (AE) monitoring, physical examinations, vital signs, 12-lead electrocardiograms (ECGs), and clinical laboratory tests.
# To support the evaluation of the relationship between concentration and QT/corrected QT (QTc) interval effects in the early stage of the clinical development of venadaparib, triplicate ECG tests were conducted in the middle of the study [22]. A triplicate ECG test was conducted in three Caucasian and five Chinese subjects after the protocol amendment. […] Fridericia’s corrected QT interval (QTcF) was collected, along with the existing ventricular rate, PR interval, QRS duration, QT interval, and QTcB. Triplicate ECGs were measured three times at intervals of 30 s to 2 min at each time point after at least 5 min of resting, and the median value of the three measurements was considered a representative value. QTcF and QTcB were calculated using the following population-derived correction equations: QTcF = QT/RR^0.33 and QTcB = QT/RR^0.5 [22].
# [3] = Caucasian, fasted state (N = 12)
structure (smiles),measurement,setting,value
O=C(c1cc(Cc2n[nH]c(=O)c3ccccc23)ccc1F)N1CC(CNC2CC2)C1 [venadaparib],AUCinf,[1]; [3],14202.62 ± 4352.38 ng·h/mL
same,AUClast,[1]; [3],14091.32 ± 4285.15 ng·h/mL
same,CL/F,[1]; [3],6.10 ± 1.73 L/h
same,Cmax,[1]; [3],2392.29 ± 464.48 ng/mL
same,Vd/F,[1]; [3],72.52 ± 18.25 L
same,t1/2,[1]; [3],9.32 ± 4.98 h
same,Tmax,[1]; [3],0.50 (0.50–2.00) h
same,AUCinf,"[1]; Caucasian, fed state (N = 12)",13752.20 ± 4522.49 ng·h/mL
same,AUClast,"[1]; Caucasian, fed state (N = 12)",13557.03 ± 4401.60 ng·h/mL
same,CL/F,"[1]; Caucasian, fed state (N = 12)",6.33 ± 1.78 L/h
same,Cmax,"[1]; Caucasian, fed state (N = 12)",1894.30 ± 602.49 ng/mL
same,Vd/F,"[1]; Caucasian, fed state (N = 12)",124.29 ± 71.28 L
same,t1/2,"[1]; Caucasian, fed state (N = 12)",14.16 ± 7.16 h
same,Tmax,"[1]; Caucasian, fed state (N = 12)",2.00 (1.00–4.00) h
same,AUCinf geometric mean ratio (90% confidence interval),"[1]; Caucasian, 80 mg",0.96 (0.9074–1.0260)
same,AUClast geometric mean ratio (90% confidence interval),"[1]; Caucasian, 80 mg",0.96 (0.9017–1.0186)
same,Cmax geometric mean ratio (90% confidence interval),"[1]; Caucasian, 80 mg",0.77 (0.6871–0.8609)
same,Decrease of Cmax in the fed state compared with the fasted state,"[1]; Caucasians, 80 mg",23%
same,AUCinf,"[1]; Chinese, fasted state (N = 12)",14981.87 ± 4276.66 ng·h/mL
same,AUClast,"[1]; Chinese, fasted state (N = 12)",14878.51 ± 4254.97 ng·h/mL
same,CL/F,"[1]; Chinese, fasted state (N = 12)",5.84 ± 2.02 L/h
same,Cmax,"[1]; Chinese, fasted state (N = 12)",2390.12 ± 576.02 ng/mL
same,Vd/F,"[1]; Chinese, fasted state (N = 12)",53.23 ± 20.51 L
same,t1/2,"[1]; Chinese, fasted state (N = 12)",6.95 ± 4.18 h
same,Tmax,"[1]; Chinese, fasted state (N = 12)",1.00 (0.50–2.00) h
same,AUCinf,"[1]; Korean, fasted state (N = 12)",12453.18 ± 3565.66 ng·h/mL
same,AUClast,"[1]; Korean, fasted state (N = 12)",12347.13 ± 3514.30 ng·h/mL
same,CL/F,"[1]; Korean, fasted state (N = 12)",6.92 ± 1.95 L/h
same,Cmax,"[1]; Korean, fasted state (N = 12)",2165.59 ± 446.08 ng/mL
same,Vd/F,"[1]; Korean, fasted state (N = 12)",83.84 ± 48.70 L
same,t1/2,"[1]; Korean, fasted state (N = 12)",9.06 ± 6.08 h
same,Tmax,"[1]; Korean, fasted state (N = 12)",0.50 (0.50–2.00) h
same,AUCinf,"[1]; Korean, fed state (N = 12)",13108.90 ± 5771.31 ng·h/mL
same,AUClast,"[1]; Korean, fed state (N = 12)",12972.02 ± 5734.25 ng·h/mL
same,CL/F,"[1]; Korean, fed state (N = 12)",6.95 ± 2.29 L/h
same,Cmax,"[1]; Korean, fed state (N = 12)",1835.01 ± 637.11 ng/mL
same,Vd/F,"[1]; Korean, fed state (N = 12)",104.18 ± 57.31 L
same,t1/2,"[1]; Korean, fed state (N = 12)",10.80 ± 5.10 h
same,Tmax,"[1]; Korean, fed state (N = 12)",2.00 (0.50–4.00) h
same,AUCinf geometric mean ratio (90% confidence interval),"[1]; Korean, 80 mg",1.02 (0.9126–1.1360)
same,AUClast geometric mean ratio (90% confidence interval),"[1]; Korean, 80 mg",1.02 (0.9088–1.1339)
same,Cmax geometric mean ratio (90% confidence interval),"[1]; Korean, 80 mg",0.82 (0.7457–0.9094)
same,Reduction of peak concentrations after a high-fat meal,"[1]; Koreans and Caucasians, 80 mg",approximately 20%
same,Decrease of Cmax in the fed state compared with the fasted state,"[1]; Koreans, 80 mg",18%
same,"PK profiles among the Korean, Caucasian, and Chinese subjects","[1]; fasted state, 80 mg",comparable
same,Effect of the high-fat meal on overall systemic exposure,"[1]; fed vs fasted state, 80 mg",not significantly affected
same,Infections and infestations: number of events,[2],1
same,Infections and infestations: number of subjects (percentage of subjects),[2],1 (8.3)
same,Oral herpes: number of events,[2]; po,1
same,Oral herpes: number of subjects (percentage of subjects),[2]; po,1 (8.3)
